Structures can show the parent of a compound that is named as a salt. Where two headings read alike, the source gives them in different places.
Tests used:
Assay type in all cases: biochemical
Serotonin (5-HT) uptake = molecular target: T1, Serotonin (5-HT) uptake (Rattus norvegicus, UniProt P31652); test: Serotonin (5-HT) uptake inhibitory activity using rat brain synaptosome (frontal cortex); details: tritium-labeled 5-HT 8 nM, 37° C. 10 minutes
T1 construct: The suspension was used as a crude synaptosome fraction; from tissue; host or cells: rat (male Wistar) frontal cortex, crude synaptosome fraction
Method: Measurement of Serotonin (5-HT) Uptake Inhibitory Activity of Test Compound Using Rat Brain Synaptosome
(§1) Male Wistar rats were decapitated, and their brains were removed and dissected to remove the frontal cortex. The separated frontal cortex was placed in a 20-fold weight of a 0.32 molarity (M) sucrose solution and homogenized with a potter homogenizer. The homogenate was centrifuged at 1000 g at 4° C. for 10 minutes, and the supernatant was further centrifuged at 20000 g at 4° C. for 20 minutes. […] The suspension was used as a crude synaptosome fraction.
(§2) Uptake reaction was performed using each well of a 96-well round-bottom plate and a 200 μl volume in total of a solution containing pargyline (final concentration: 10 μM) and ascorbic acid (final concentration: 0.2 mg/ml).
(§3) Specifically, a solvent, unlabeled 5-HT, and serially diluted test compounds were separately added to the wells, and the synaptosome fraction was added in an amount 1/10 of the final volume to each well and preincubated at 37° C. for 10 minutes. Then, a tritium-labeled 5-HT solution (final concentration: 8 nM) was added thereto to initiate uptake reaction at 37° C. 10 minutes later, the uptake reaction was terminated by suction filtration through a 96-well glass fiber filter plate. Furthermore, the filter was washed with a cold saline and then sufficiently dried. MicroScint-O (PerkinElmer Co., Ltd.) was added thereto, and the residual radioactivity on the filter was measured.
(§4) An uptake value obtained by the addition of only the solvent was defined as 100%, and an uptake value (nonspecific uptake value) obtained by the addition of the unlabeled 5-HT (final concentration: 10 μM) was defined as 0%. A 50%, inhibitory concentration was calculated from the test compound concentrations and inhibitory activities thereat.

[1] = molecular target: Norepinephrine (NE) uptake (Rattus norvegicus, UniProt Q9WTR4); test: Norepinephrine (NE) uptake inhibitory activity using rat brain synaptosome (hippocampus)
Method: Measurement of Norepinephrine (NE) Uptake Inhibitory Activity of Test Compound Using Rat Brain Synaptosome
Male Wistar rats were decapitated, and their brains were removed and dissected to remove the hippocampus. The separated hippocampus was placed in a 20-fold weight of a 0.32 molarity (M) sucrose solution and homogenized with a potter homogenizer. The homogenate was centrifuged at 1000 g at 4° C. for 10 minutes, and the supernatant was further centrifuged at 20000 g at 4° C. for 20 minutes. The pellet was suspended in an incubation buffer (20 mM HEPES buffer (pH 7.4) containing 10 mM glucose, 145 mM sodium chloride, 4.5 mM potassium chloride, 1.2 mM magnesium chloride, and 1.5 mM calcium chloride). The suspension was used as a crude synaptosome fraction.
as §2
as §3, with “unlabeled NE,” for “unlabeled 5-HT,”, “tritium-labeled NE” for “tritium-labeled 5-HT”, “concentration: 12” for “concentration: 8”, “C. Ten” for “C. 10”
as §4, with “NE” for “5-HT”, “50%” for “50%,”

Dopamine (DA) uptake = molecular target: T2, Dopamine (DA) uptake (Rattus norvegicus, UniProt P23977); test: Dopamine (DA) uptake inhibitory activity using rat brain synaptosome (corpus striatum); details: tritium-labeled DA 2 nM, 37° C. ten minutes, read-out: 50% Inhibitory concentration
T2 construct: The suspension was used as a crude synaptosome fraction; from tissue; host or cells: rat (male Wistar) corpus striatum, crude synaptosome fraction
Method: Measurement of Dopamine (DA) Uptake Inhibitory Activity of Test Compound Using Rat Brain Synaptosome
as §1, with “corpus striatum.” for “frontal cortex.”, “corpus striatum” for “frontal cortex”
Uptake reaction was performed using each well of a 96-well round-bottom plate and a 200 μl volume in total of a solution containing pargyline (final concentration: 10 μM) and ascorbic acid (final concentration: 0.2 mg/mil).
as §3, with “unlabeled DA,” for “unlabeled 5-HT,”, “tritium-labeled DA” for “tritium-labeled 5-HT”, “concentration: 2” for “concentration: 8”, “C. Ten” for “C. 10”
as §4, with “DA” for “5-HT”, “50%” for “50%,”

[2] = read-out: 50% Inhibitory concentration
[3] = tritium-labeled NE 12 nM, 37° C. ten minutes, read-out: 50% inhibitory concentration

T1 sequence (P31652 whole entry): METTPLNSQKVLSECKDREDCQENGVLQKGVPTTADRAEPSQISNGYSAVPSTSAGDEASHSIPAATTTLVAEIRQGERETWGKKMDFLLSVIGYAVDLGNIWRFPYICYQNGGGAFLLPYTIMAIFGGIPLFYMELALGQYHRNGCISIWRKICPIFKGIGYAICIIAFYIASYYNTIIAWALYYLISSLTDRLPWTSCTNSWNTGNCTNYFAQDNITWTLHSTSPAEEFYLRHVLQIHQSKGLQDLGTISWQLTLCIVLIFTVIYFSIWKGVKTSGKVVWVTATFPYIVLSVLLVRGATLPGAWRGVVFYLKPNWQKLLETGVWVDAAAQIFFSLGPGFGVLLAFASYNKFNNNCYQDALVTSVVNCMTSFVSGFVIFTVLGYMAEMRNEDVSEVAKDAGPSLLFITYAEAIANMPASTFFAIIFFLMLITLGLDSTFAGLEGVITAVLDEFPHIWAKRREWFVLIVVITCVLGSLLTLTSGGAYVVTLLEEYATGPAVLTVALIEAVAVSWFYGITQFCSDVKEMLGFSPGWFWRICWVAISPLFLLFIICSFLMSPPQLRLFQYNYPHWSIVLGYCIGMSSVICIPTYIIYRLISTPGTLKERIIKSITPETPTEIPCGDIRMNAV
T2 sequence (P23977 whole entry): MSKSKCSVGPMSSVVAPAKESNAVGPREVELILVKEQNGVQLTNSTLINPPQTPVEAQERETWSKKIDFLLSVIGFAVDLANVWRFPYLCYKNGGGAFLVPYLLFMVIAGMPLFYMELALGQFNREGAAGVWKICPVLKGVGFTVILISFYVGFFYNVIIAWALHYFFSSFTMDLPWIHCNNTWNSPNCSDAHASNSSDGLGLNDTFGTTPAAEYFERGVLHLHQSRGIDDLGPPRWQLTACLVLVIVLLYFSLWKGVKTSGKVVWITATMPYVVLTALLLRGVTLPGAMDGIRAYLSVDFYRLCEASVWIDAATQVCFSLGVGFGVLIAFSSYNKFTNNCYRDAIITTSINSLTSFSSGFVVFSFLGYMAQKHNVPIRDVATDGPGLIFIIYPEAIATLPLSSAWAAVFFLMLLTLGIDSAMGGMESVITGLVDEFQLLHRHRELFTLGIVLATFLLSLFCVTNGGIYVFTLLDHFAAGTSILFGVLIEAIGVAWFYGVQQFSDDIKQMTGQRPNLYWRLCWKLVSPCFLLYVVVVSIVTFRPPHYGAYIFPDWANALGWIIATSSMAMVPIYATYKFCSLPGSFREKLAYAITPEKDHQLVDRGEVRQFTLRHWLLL

Structure (SMILES)	IC50 (Serotonin (5-HT) uptake; [2])	IC50 [1, 3]	IC50 (Dopamine (DA) uptake)	IC50 (Serotonin (5-HT) uptake; 50% Inhibitory concentration)	IC50 ([1]; read-out: 50% inhibitory concentration, tritium-labeled NE 12 nM, 37° C. ten minutes)
CC1(C)CN(c2ccc3sccc3c2)[C@@H]2CCC[C@@H]2N1 (racemic) [Example 7]	1 nM	9.5 nM	78.9 nM		
CC1(C)CN(c2ccc(Cl)c(Cl)c2)[C@H]2CCC[C@@H]2N1 (racemic) [Example 15]	12.5 nM	11 nM	68.4 nM		
CC1(C)CN(c2ccc3sccc3c2)[C@@H]2CCCCC[C@@H]2N1 (racemic) [Example 344]	6.8 nM	7.5 nM	9.8 nM		
CC1(C)CN(c2ccc3ncsc3c2)[C@H]2CCCC[C@@H]2N1 (racemic) [Example 405]	6.4 nM	4.4 nM	74.8 nM		
CC1(C)CN(c2ccc3sccc3c2)[C@H]2CCC[C@@H]2N1 (relative stereo) [Example 13]	5.1 nM	14.3 nM	85.4 nM		
CC1(C)CN(c2cccc3sccc23)[C@@H]2CCCC[C@@H]2N1 (relative stereo) [Example 27]	5.8 nM	0.9 nM	31.9 nM		
CC1(C)CN(c2cccc3occc23)[C@@H]2CCCC[C@@H]2N1 (relative stereo) [Example 33]	2.6 nM	0.7 nM	15.1 nM		
C[C@@H]1CN(c2ccc3sccc3c2)[C@H]2CCCC[C@@H]2N1 (relative stereo) [Example 285]	19.7 nM	1.4 nM	43.9 nM		
CC[C@@H]1CN(c2ccc3ccccc3c2)[C@H]2CCCC[C@@H]2N1C (relative stereo) [Example 288]	56.1 nM	22 nM	74.7 nM		
OCCN1CCN(c2ccc(Cl)c(Cl)c2)[C@H]2CCCC[C@@H]21 (relative stereo) [Example 300]	89.1 nM	9.9 nM	81.3 nM		
c1cc2cc(N3CC4(CCCC4)N[C@H]4CCCC[C@@H]43)ccc2s1 (relative stereo) [Example 307]	19.3 nM	40.4 nM	68.2 nM		
CC1(C)CCN(c2ccc(Cl)c(Cl)c2)[C@@H]2CCCC[C@@H]2N1 (relative stereo) [Example 322]	9.6 nM	40.1 nM	67.7 nM		
CC1(C)CN(c2ccc(Cl)c(Cl)c2)[C@@H]2CCCCC[C@@H]2N1 (relative stereo) [Example 346]	10 nM	8.8 nM	7.8 nM		
CC1(C)CN(c2ccc3sccc3c2)[C@H]2CCCCC[C@@H]2N1 (relative stereo) [Example 348]	6.4 nM	4.6 nM	27.3 nM		
CC1(C)CN(c2ccc(F)c3ccccc23)[C@H]2CCCC[C@@H]2N1 (relative stereo) [Example 409]	35.6 nM	9.1 nM	165 nM		
C[C@@H]1CN(c2cccc3ccsc23)[C@@H]2CCCC[C@@H]2N1 (relative stereo) [Example 1113]	5.4 nM	1.7 nM	26 nM		
CC1(C)CN(c2ccc3cc[nH]c3c2)[C@H]2CCCC[C@H]2N1 [Example 2, (4aR,8aS)-1-(1H-indol-6-yl)-3,3-dimethyldecahydroquinoxaline]	7.1 nM	4.6 nM	85.9 nM		

Structure (SMILES)	IC50 (Serotonin (5-HT) uptake; [2])	IC50 [1, 3]	IC50 (Dopamine (DA) uptake)	IC50 (Serotonin (5-HT) uptake; 50% Inhibitory concentration)	IC50 ([1]; read-out: 50% inhibitory concentration, tritium-labeled NE 12 nM, 37° C. ten minutes)
CC1(C)CN(c2ccc3sccc3c2)C2COCC2N1 (stereo not drawn) [Example 8]	2.4 nM	60.9 nM	378 nM		
CC1(C)CN(c2ccc(Cl)c(Cl)c2)C2CCCC2N1 (stereo not drawn) [Example 10]	6.2 nM	8.8 nM	64.8 nM		
CC1(C)CN(c2cccc3ccsc23)[C@@H]2CCCC[C@@H]2N1 [Example 72]	2.6 nM	1 nM	47.9 nM		
CC1(C)CN(c2ccc(F)c3occc23)[C@@H]2CCCC[C@@H]2N1 [Example 77, (4aS,8aR)-1-(7-fluorobenzofuran-4-yl)-3,3-dimethyldecahydroquinoxaline]	0.8 nM	3.9 nM	41.2 nM		
CC1(C)CN(c2cccc3[nH]ccc23)[C@@H]2CCCC[C@@H]2N1 [Example 85]	7.2 nM	4.9 nM	95.7 nM		
CC1(C)CN(c2ccc(F)c(Cl)c2)[C@@H]2CCCC[C@@H]2N1 [Example 112, (4aS,8aR)-1-(3-chloro-4-fluorophenyl)-3,3-dimethyldecahydroquinoxaline hydrochloride]	7.1 nM	87.3 nM	264 nM		
CC1(C)CN(c2cccc3ccccc23)[C@H]2CCCC[C@H]2N1 [Example 118]	13.7 nM	3.7 nM	8.3 nM		
CC1(C)CN(c2cccc3ncccc23)[C@H]2CCCC[C@H]2N1 [Example 120]			187 nM	9.2 nM	9.2 nM
CC1(C)CN(c2cccc3sccc23)[C@H]2CCCC[C@H]2N1 [Example 124]	8.5 nM	0.8 nM	9.1 nM		
CN1[C@@H]2CCCC[C@@H]2N(c2cccc3sccc23)CC1(C)C [Example 125]	4.7 nM	1.9 nM	5.2 nM		
CC1(C)CN(c2cccc3ccsc23)[C@H]2CCCC[C@H]2N1 [Example 130]	5.3 nM	0.5 nM	3.9 nM		
CC1(C)CN(c2cccc3occc23)[C@H]2CCCC[C@H]2N1 [Example 131]	6.1 nM	0.7 nM	8.3 nM		
CN1[C@@H]2CCCC[C@@H]2N(c2cccc3occc23)CC1(C)C [Example 132]	8.8 nM	3.1 nM	3.9 nM		
CC1(C)CN(c2ccc(F)c3occc23)[C@H]2CCCC[C@H]2N1 [Example 136]	1.3 nM	0.5 nM	7.7 nM		
Cn1c(C#N)cc2cc(N3CC(C)(C)N[C@@H]4CCCC[C@@H]43)ccc21 [Example 150, 5-((4aR,8aS)-3,3-dimethyldecahydroquinoxalin-1-yl)-1-methyl-1H-indole-2-carbonitrile]	5.4 nM	23.6 nM	200 nM		
CC1(C)CN(c2ccccc2Cl)[C@H]2CCCC[C@H]2N1 [Example 165]	12 nM	2.4 nM	6.8 nM		
CC1(C)CN(c2ccc3sccc3c2)[C@H]2CCCC[C@@H]2N1 [Example 186]	5.2 nM	3.8 nM	29.8 nM		

Reference: patent publication US11273168B2, “Methods of treating anxiety by administering a substituted quinolone” (OTSUKA PHARMACEUTICAL CO., LTD., priority 2010, dated 2022)
